Reference: patent publication US6642257B2, “Agents for treating neuropathic pain” (Mochida Pharmaceutical Co., Ltd., priority 1999, dated 2003)
Counter-ions that a name gives are not always drawn. Like-named read-outs stand apart in the source and are kept apart here. Marks after values point to notes of the source that are not given here. One block for each molecule: values may come before it.

Legend:
[1] = tested on: formalin-induced nociceptive response; assay: Formalin-induced nociceptive response in rats; assay type: in vivo, rat; conditions: for inhibition in vivo at 10 mg/kg: Rattus norvegicus, po, 10 mg/kg orally 30 minutes before formalin
Method: Specifically, 25 μL of 0.5% formalin solution was subcutaneously injected into the left foot pad of the rat, and then each behavior of the rat consisting of the licking or biting of the pad immediately following the injection was checked with a stopwatch for its duration, and its cumulative duration was recorded at five minute intervals. […] The test compound was orally applied to the rat 30 minutes before the subcutaneous injected of formalin. Then, the inhibitory effect of the test compound on the nociceptive response induced by the formalin injection was calculated according to the following formula. To mention, for illustration, the inhibitory effect of carbamazepine, an agent to serve as a comparative example, if it is orally applied at 50 mg/kg, it inhibits the first-phase response by 52%, while it inhibits the second-phase response by 59%. Percent inhibition (%) -[([…]]×100 wherein […] is the response time (sec) of the test group which received formalin and the test compound, while PRcontol is the response time of the control group which received formalin alone.

[2] = tested on: isolated myocardial cells; assay: Inhibition of veratrine-induced contracture of isolated myocardial cells; assay type: cell-based; conditions: Rattus norvegicus; veratrine 100 μg/mL, test compound 30 minutes before
Method: Specifically, the heart removed from the rat according to the Langendorff's method was treated with an enzyme, and isolated myocardial cells were obtained. The myocardial cells were inoculated on a 48 multi-well plate (3548 Coster) previously coated with poly-L-lysine at a rate of 1×10^4 cells/well. The plate was kept at 37° C. for 1 hour while being exposed to a flow of gas comprising 95% O2 and 5% CO2, to allow the cells to adhere to the bottom of each well. Then, the test compound was added to each well, and allowed to be there for 30 minutes, and […] to each well to 100 μg/mL. Five minutes later, the cells of each well was checked for their morphological changes, and the changes were photographed. If the cells' shape changed from a rod-like one into a ball-like one in the presence of veratrine, the cells were regarded as falling to contracture as a result of the exposure to veratrine. The inhibitory effect of the test compound on the contracture was determined by the probit method, and was expressed in terms of IC50. Veratrine is a mixture of […] alkaloids. If veratrine is applied to isolated myocardial cells, the cells which take a rod-like shape in a normal state will fall to contracture, taking a ball-like shape. Veratrine, when applied to isolated myocardial cells, is thought to cause a persistent sodium current in the cells, by suppressing the inactivation of the sodium channel in the cells, which leads to the contracture of the cells (Donck et al., ibid).

[3] = molecular target: batrachotoxin receptors in the synaptosome from the rat brain (sodium channel); assay: Inhibition of the binding of batrachotoxin to receptors in rat brain synaptosome; conditions: 1.5 nM tritiated batrachotoxin A20-alfa-benzoate, 100 μM veratridine, 37° C., 30 minutes
[4] = tested on: transient sodium current in neuroblastoma cells; assay: Voltage-clamp, transient sodium current; conditions: at 53 μM
[5] = tested on: response threshold to a mechanical stimulus; assay: Rat model made by loosely constricting the sciatic nerve (Bennett), von Frey threshold; assay type: in vivo; conditions: constriction, 1 hour after dosing
Method: (“Pain,” 33:87, 1988). Specifically, the rat was anesthetized with i.p. injection of pentobarbital sodium at 40 mg/kg; the overlying skin was cut open; and the left biceps femoris muscle was bluntly separated. The sciatic nerve was isolated from surrounding tissues; it was gently constricted at four sites about 1 mm apart from each other by the use of surgical gut sutures (4-0); the operated part was closed; and the rat was returned to its cage for further feeding. For the rat belonging to the sham-surgery group, the same operation was performed except that the sciatic nerve was left untouched. Two weeks after the surgery, the response threshold to a mechanical stimulus consisting of touch with a von Frey filament was determined. The test proceeded as follows: the test compound dissolved or suspended in a solvent (0.5% aqueous solution of hydroxypropylmethyl cellulose) was orally applied to the rat having the sciatic nerve constricted; one hour later, von Frey hairs were applied against the foot pad (spots ranging from heel to the mid-point of foot) one after another in an ascending order of their stiffness; if the rat raises its foot when a certain von Frey hair was applied, the stimulus intensity of that hair was taken as the response threshold (maximum stimulus intensity being 28.84g).

[6] = tested on: Crj:CD(SD) IGS female rats; assay: Toxicological study, 14-day oral gavage; conditions: 5 or 10 mg/kg/day orally once daily for 14 days
[7] = 10 min, first 10 minutes, read-out: Response inhibition, 1st phase
[8] = 0.75 h, 10 to 45 minutes, read-out: Response inhibition, 2nd phase

melting point: 197.3 °C (dec.)
SMILES: CC(C)Oc1ccc(NCCC2(O)CCN(CCc3ccc(C#N)cc3)CC2)cc1.Cl.Cl

SMILES: CC(C)Oc1ccc(N(C)CCC2(O)CCN(CCc3ccccc3)CC2)cc1.Cl.Cl [Example 50, 4-[2-[N-methyl-N-(4-isopropoxyphenyl)-amino]ethyl]-1-(2-phenylethyl)piperidin-4-ol dihydrochloride]
inhibition in vivo at 10 mg/kg [1, 7]: 44% | inhibition in vivo at 10 mg/kg [1, 8]: 64% | melting point: 189.7 to 192.6 °C | IC50 [2]: 1.51 µM | IC50 [3]: 0.3 µM

SMILES: CC(C)Oc1ccc(N(C)CCC2(O)CCN(CCc3ccc(C#N)cc3)CC2)cc1.Cl.Cl [Example 51, 1-[2-(4-cyanophenyl)ethyl]-4-[2-[N-methyl-N-(4-isopropoxyphenyl)amino]ethyl]piperidin-4-ol dihydrochloride]
Decrease of the peak value of the transient inward current [4]: 18% | inhibition in vivo at 10 mg/kg [1, 7]: 46% | inhibition in vivo at 10 mg/kg [1, 8]: 67% | Mean threshold, normal foot (right) ([5]; 2.5 mg/kg oral): 16.43 g | Mean threshold, test foot (left) ([5]; 2.5 mg/kg oral): 8.33 g | Mean threshold, normal foot (right) ([5]; 5 mg/kg oral): 16.43 g | Mean threshold, test foot (left) ([5]; 5 mg/kg oral): 12.63* g | Mean threshold, normal foot (right) ([5]; 10 mg/kg oral): 16.85 g | Mean threshold, test foot (left) ([5]; 10 mg/kg oral): 15.58** g | Body weight [6]: no loss in the weight | General conditions [6]: no notable abnormalities in general conditions | Histopathological examination [6]: no abnormal findings were obtained | Survival during treatment period [6]: All the rats survived | IC50 [2]: 1.56 µM | IC50 [3]: 0.61 µM

SMILES: CC(C)Oc1ccc(N(C)CCC2(O)CCN(CCc3ccc(F)cc3)CC2)cc1.Cl.Cl [Example 55, 1-[2-(4-fluorophenyl)ethyl]-4-[2-[N-methyl-N-(4-isopropoxyphenyl)amino]ethyl]piperidin-4-ol dihydrochloride]
inhibition in vivo at 10 mg/kg [1, 7]: 30% | inhibition in vivo at 10 mg/kg [1, 8]: 55% | melting point: 252 °C (dec.) | IC50 [2]: 1.34 µM | IC50 [3]: 0.28 µM

SMILES: CC(C)Oc1ccc(N(C)CCC2(O)CCN(CCc3ccc([N+](=O)[O-])cc3)CC2)cc1 [Example 56, 4-[2-[N-methyl-N-(4-isopropoxyphenyl)amino]ethyl]-1-[2-(4-nitrophenyl)ethyl]piperidin-4-ol dihydrochloride]
inhibition in vivo at 10 mg/kg [1, 7]: 40% | inhibition in vivo at 10 mg/kg [1, 8]: 70%

SMILES: CC(C)Oc1ccc(N(C)CCC2(O)CCN(CCc3cccc(F)c3)CC2)cc1 [Example 58, 1-[2-(3-fluorophenyl)ethyl]-4-[2-[N-methyl-N-(4-isopropoxyphenyl)amino]ethyl]piperidin-4-ol dihydrochloride]
inhibition in vivo at 10 mg/kg [1, 7]: 29% | inhibition in vivo at 10 mg/kg [1, 8]: 56%

SMILES: CC(C)Oc1ccc(N(C)CCC2(O)CCN(CCc3ccc(Cl)cc3)CC2)cc1 [Example 60, 1-[2-(4-chlorophenyl)ethyl]-4-[2-[N-methyl-N-(4-isopropoxyphenyl)amino]ethyl]piperidin-4-ol dihydrochloride]
inhibition in vivo at 10 mg/kg [1, 7]: 61% | inhibition in vivo at 10 mg/kg [1, 8]: 92%

SMILES: CC(C)Oc1ccc(N(C)CCC2(O)CCN(CCc3ccccc3C(F)(F)F)CC2)cc1 [Example 65, 4-[2-[N-methyl-N-(4-isopropoxyphenyl)amino]ethyl]-1-[2-[2-(trifluoromethyl)phenyl]ethyl]piperidin-4-ol dihydrochloride]
inhibition in vivo at 10 mg/kg [1, 7]: 93% | inhibition in vivo at 10 mg/kg [1, 8]: 96%

melting point: 202.6 to 203.9 °C
SMILES: CC(C)Oc1ccc(N(C)CCC2(O)CCN(CCc3ccoc3)CC2)cc1.Cl.Cl [Example 84, 1-[2-(3-furyl)ethyl]-4-[2-[N-methyl-N-(4-isopropoxyphenyl)amino]ethyl]piperidin-4-ol dihydrochloride]
inhibition in vivo at 10 mg/kg [1, 7]: 23% | inhibition in vivo at 10 mg/kg [1, 8]: 49%

melting point: 203 to 204.5 °C | IC50 [2]: 1.65 µM
SMILES: CC(C)Oc1ccc(N(C)CCC2(O)CCN(CCc3cccs3)CC2)cc1.Cl.Cl [Example 86, 4-[2-[N-methyl-N-(4-isopropoxyphenyl)amino]ethyl]-1-[2-(2-thienyl)ethyl]piperidin-4-ol dihydrochloride]
inhibition in vivo at 10 mg/kg [1, 7]: 19% | inhibition in vivo at 10 mg/kg [1, 8]: 62%

melting point: 214 to 215.2 °C
SMILES: CCOc1ccc(N(C)CCC2(O)CCN(CCc3ccc(C#N)cc3)CC2)cc1.Cl.Cl [Example 90, 1-[2-(4-cyanophenyl)ethyl]-4-[2-[N-(4-ethoxyphenyl)-N-methylamino]ethyl]piperidin-4-ol dihydrochloride]
inhibition in vivo at 10 mg/kg [1, 7]: 55% | inhibition in vivo at 10 mg/kg [1, 8]: 65%

melting point: 202.8 to 203.4 °C
SMILES: CC(C)Oc1ccc(N(C)CC2(O)CCN(CCc3ccc(C#N)cc3)CC2)cc1.Cl.Cl [Example 96, 1-[2-(4-cyanophenyl)ethyl]-4-[N-methyl-N-(4-isopropoxyphenyl)aminomethyl]piperidin-4-ol dihydrochloride]
inhibition in vivo at 10 mg/kg [1, 7]: 74% | inhibition in vivo at 10 mg/kg [1, 8]: 69%

SMILES: NC(=O)N1c2ccccc2C=Cc2ccccc21 [carbamazepine, reference compound]
Inhibition of the first-phase response ([1]; orally applied at 50 mg/kg): 52% | Inhibition of the second-phase response ([1]; orally applied at 50 mg/kg): 59% | Mean threshold, normal foot (right) ([5]; 50 mg/kg oral): 19.85 g | Mean threshold, test foot (left) ([5]; 50 mg/kg oral): 8.97 g | Mean threshold, normal foot (right) ([5]; 100 mg/kg oral): 27.13 g | Mean threshold, test foot (left) ([5]; 100 mg/kg oral): 19.43** g | IC50 [3]: ≥ 300 µM

SMILES: Cc1cccc(C)c1OCC(C)N (centres unmarked) [mexiletine, reference compound]
IC50 [3]: 17 µM

SMILES: O=C1NC(=O)C(c2ccccc2)(c2ccccc2)N1 [phenytoin, reference compound]
IC50 [3]: 51 µM
